Values quoted from earlier work in patent US5972639A, “Fluorescence-based assays for measuring cell proliferation” (Irori, priority 1997, dated 1999).

Key:
Conditions in all cases: cited from earlier work
[1] = test system: Alkaline phosphatase
[2] = test system: Acid phosphatase
[3] = biological target: Alkaline phosphatase (E. coli) (Escherichia coli, UniProt P00634)
Alkaline phosphatase (E. coli), sequence (P00634 22-471): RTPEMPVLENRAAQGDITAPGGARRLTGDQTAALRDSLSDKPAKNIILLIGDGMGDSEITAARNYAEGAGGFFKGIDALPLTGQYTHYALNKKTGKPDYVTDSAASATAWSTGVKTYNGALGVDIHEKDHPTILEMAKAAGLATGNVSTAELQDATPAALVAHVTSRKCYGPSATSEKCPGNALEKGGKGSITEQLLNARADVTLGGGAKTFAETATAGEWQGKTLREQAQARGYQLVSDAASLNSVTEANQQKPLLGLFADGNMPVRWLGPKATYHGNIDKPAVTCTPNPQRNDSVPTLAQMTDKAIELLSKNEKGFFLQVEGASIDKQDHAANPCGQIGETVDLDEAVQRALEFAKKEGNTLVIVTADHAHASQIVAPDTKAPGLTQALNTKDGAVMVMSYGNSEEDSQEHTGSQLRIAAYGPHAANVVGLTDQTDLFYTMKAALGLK

SMILES	Alkaline phosphatase, products identified [1]	Acid phosphatase, products identified [2]	Km [3]
CC(=O)NCCSP(=O)(O)O [N-Acetylcysteamine S-phosphate]	N-Acetylcysteamine	No cleavage	–
COC(=O)CCSP(=O)(O)O [S-[2-(Methoxy-carboxyl)ehtyl] phosphorothioate]	d, ^32 Pi	No cleavage	–
O=[N+]([O-])c1ccc(OP(=O)(O)O)cc1 [p-NPP, p-nitrophenyl phosphate]	–	–	94 µM
